{
  "source": "patent US20240285557A1",
  "about": "“PHARMACEUTICAL COMPOSITION COMPRISING LIPASE INHIBITOR FOR TREATMENT OR TREATMENT OF RNA VIRAL INFECTIONS” (priority 2021, published 2024)",
  "key": {"MARC cells [1]": {"test_system": "MARC cells", "experimental": "(§1) To determine the half-maximal cytotoxic concentration (CC50) of the lipase inhibitors atglistatin and CAY10499, Vero E6, A549, HRT-18G, MA104, MARC-145, and LLC-PK cells were prepared in monolayers in 96-well plates.\n(§2) The cells were treated with the drugs for 24 hours, and the culture media was removed before addition of 200 μL of 3-(4,5-dimethylthiazol-2-yl)-2,5-diphenyl tetrazolium bromide (MTT) solution to each well. The plates were then incubated for 4 hours in a 5% CO2 incubator at 36° C. Subsequently, 150 μL of DMSO solution was added to each well and incubated at 20° C. The optical density (OD) was measured at 570 nm wavelength using an enzyme-linked immunosorbent assay (ELISA) reader."}, "Vero E6 cells [2]": {"test_system": "Vero E6 cells", "experimental": "as §1, §2"}, "MA104 cells [3]": {"test_system": "MA104 cells", "experimental": "as §1, §2"}, "[4]": {"test_system": "A549, Vero E6, MDCK, HRT18G, MA04, MARC, and LLC-PK cells", "experimental": "as §1, §2"}, "HRT18G cells [5]": {"test_system": "HRT18G cells", "experimental": "as §1, §2"}, "[6]": {"assay": "MTT half-maximal cytotoxic concentration (CC50)", "conditions": "African green monkey", "experimental": "as §1, §2"}, "[7]": {"assay": "MTT half-maximal cytotoxic concentration (CC50)", "conditions": "African green monkey", "remark": "listed apart in the source", "experimental": "as §1, §2"}, "Vero E6 cells [8]": {"test_system": "Vero E6 cells", "assay": "MTT half-maximal cytotoxic concentration (CC50)", "conditions": "Vero E6; drugs for 24 hours, MTT", "experimental": "as §1, §2"}, "HRT18G cells [9]": {"test_system": "HRT18G cells", "assay": "MTT half-maximal cytotoxic concentration (CC50)", "conditions": "drugs for 24 hours", "experimental": "as §1, §2"}, "MARC cells [10]": {"test_system": "MARC cells", "assay": "MTT half-maximal cytotoxic concentration (CC50)", "conditions": "MARC; drugs for 24 hours, MTT", "experimental": "as §1, §2"}, "MA104 cells [11]": {"test_system": "MA104 cells", "assay": "MTT half-maximal cytotoxic concentration (CC50)", "conditions": "MA104; drugs for 24 hours, MTT", "experimental": "as §1, §2"}, "A549 cells": {"test_system": "A549 cells", "assay": "MTT half-maximal cytotoxic concentration (CC50)", "conditions": "drugs for 24 hours", "experimental": "as §1, §2"}, "LLC-PK cells": {"test_system": "LLC-PK cells", "assay": "MTT half-maximal cytotoxic concentration (CC50)", "conditions": "LLC-PK; drugs for 24 hours, MTT", "experimental": "as §1, §2"}},
  "note": "Where two headings read alike, the source gives them in different places.",
  "data": [
    {"smiles": "COc1nn(-c2ccc(NC(=O)OCc3ccccc3)c(C)c2)c(=O)o1", "note": "[CAY10499]", "values": [
      {"measurement": "CC50", "setting": "MARC cells [1]", "value": 101, "unit": "µM"},
      {"measurement": "CC50", "setting": "Vero E6 cells [2]", "value": 102, "unit": "µM"},
      {"measurement": "CC50", "setting": "MA104 cells [3]", "value": 107, "unit": "µM"},
      {"measurement": "CC50", "setting": "MDCK cells", "value": 110, "unit": "µM"},
      {"measurement": "CC50", "setting": "[4]", "value": "101 to 110", "unit": "µM"},
      {"measurement": "CC50", "setting": "HRT18G cells [5]", "value": 104, "unit": "µM"}
    ]},
    {"smiles": "CCN(C)C(=O)Nc1cccc(-c2ccc(N(C)C)cc2)c1", "note": "[DABPU-EM, 3-(4′-(dimethylamino)-(1,1′-biphenyl)-3-yl)-1-ethyl-1-methylurea]", "values": [
      {"measurement": "CC50 at 24 h", "setting": "[6]", "value": 210, "unit": "µM"},
      {"measurement": "CC50 at 24 h", "setting": "[7]", "value": 210, "unit": "µM"}
    ]},
    {"smiles": "CCN(CC)C(=O)Nc1cccc(-c2ccc(N(C)C)cc2)c1", "note": "[DABPU-DE]", "values": [
      {"measurement": "CC50", "setting": "Vero E6 cells [8]", "value": 222, "unit": "µM"},
      {"measurement": "CC50", "setting": "HRT18G cells [9]", "value": 177, "unit": "µM"},
      {"measurement": "CC50", "setting": "MARC cells [10]", "value": 216, "unit": "µM"},
      {"measurement": "CC50", "setting": "MA104 cells [11]", "value": 209, "unit": "µM"},
      {"measurement": "CC50", "setting": "A549 cells", "value": 213, "unit": "µM"},
      {"measurement": "CC50", "setting": "LLC-PK cells", "value": 226, "unit": "µM"}
    ]}
  ]
}
